Test results published in patent US20220226586A1, “An Inhaler For Electronically Supervised Parenteral Administration of a Pharmaceutical Composition” (Celon Pharma S.A., priority 2019, published 2022).
Counter-ions that a name gives are not always drawn.

Experiments:
[1] = cited from earlier work
[2] = system: treatment-resistant depression; settings: cited from earlier work
[3] = cited from earlier work; remark: listed apart in the source
[4] = nebulized saline solution, inhalation; cited from earlier work
[5] = Pharmacokinetics of inhaled esketamine dry powder in healthy volunteers; format: in vivo; settings: overall conclusion
Description: Esketamine hydrochloride dry powder formulation of Example 2 was administered to healthy volunteers pulmonary, i.e. directly to the lungs using dry powder inhaler (DPI) (by self-administration).
One puff of dry powder formulation contained 4.6 mg of esketamine hydrochloride, corresponding to 4 mg of esketamine free base and excipients 18.22 mg of lactose monohydrate and 0.18 mg of magnesium stearate.
A single dose was an inhalation events consisting of 1 to 6 puffs, i.e. 4 to 24 mg of esketamine free base nominal dose.
In part A of the study, designed as a one-centre single ascending dose, the medicine was delivered in a single dose once daily (up to 6 consecutive puffs) to 18 healthy volunteer subjects. Subjects were divided into 6 cohorts, cohorts receiving 1, 2, 3, 4, 5 or 6 puffs in a single doses (inhalation events), respectively.
Collection of blood samples for determination of esketamine and esnorketamine concentration and calculation of pharmacokinetic parameters was performed for up 24 hours following the start of the test.
The aim of the study was to determine the amount of puffs needed to obtain plasma concentration similar to that sufficient to achieve antidepressant effect as for 0.20 mg/kg 40 minutes intravenous infusion. It can be predicted on the basis of literature data that this corresponds to concentration at 40 min of infusion between about 60 to 100 ng/ml. […]

NMDA receptor = settings: cited from earlier work
[6] = after oral administration of ketamine
[7] = after intravenous infusion of racemic ketamine

## CNC1(c2ccccc2Cl)CCCCC1=O (racemic) [ketamine]
[1]; orally administered
  bioavailability: 16-20%
[2]; human, in vivo
  fraction of patients with treatment-resistant depression responsive to treatment: about 2/3
[3]; after intravenous infusion 0.5 mg/kg for 40 minutes
  half-period of concentration fall: below 2 hours
[3]; intravenous infusion 0.5 mg/kg for 40 minutes, maintained for about 40 minutes
  systemic concentration of parent drug: about 200 ng/ml

## CN[C@]1(c2ccccc2Cl)CCCCC1=O [esketamine hydrochloride]
[4]
  inhaled bioavailability: reduced

## CN[C@]1(c2ccccc2Cl)CCCCC1=O [esketamine]
[5]
  plasma concentration profile after pulmonary administration: quite smooth, consistent with a target profile and safe for chronic administration
[2]; 40-minute i.v. infusion of 0.20 mg/kg or 0.40 mg/kg (Singh et al.)
  antidepressant effect in TRD patients: rapid onset of robust antidepressant effects

## NC1(c2ccccc2Cl)CCCCC1=O (stereo not drawn) [norketamine]
[1]; [6]
  AUC relative to ketamine: exceeding 1000%
  level as % of ketamine level: 500-1000%
NMDA receptor
  activity on NMDA receptor relative to ketamine: many times less active than ketamine
[3]; [7]
  maximum concentration as % of ketamine concentration: 10-20%
  percentage of AUC norketamine to ketamine: 20-40%
